According to patent US20260240810A1, “COMPOSITIONS AND METHODS FOR REDUCING ADVERSE SIDE EFFECTS IN CANCER TREATMENT” (priority 2022, published 2026):

Assays:
[1] = Repeated-dose toxicity study in rats; format: in vivo; conditions: 3 times/week up to 4 weeks
Procedure: Repeated-dose toxicity studies of RRx-001 (3 times/week up to 4 weeks in duration) were conducted in rats at dose levels of 12 mg/kg, 20.1 mg/kg, and 30 mg/kg per day and in dogs at dose levels of 4 mg/kg, 8 mg/kg, and 12 mg/kg per day (due to clinical signs, the 8 mg/kg and 12 mg/kg doses were reduced to 3 mg/kg and 5 mg/kg on Day 4). The no observed adverse effect level was <12 mg/kg in rats and 5 mg/kg in dogs.

[2] = pharmacokinetic data, J. Scicinski et al. 2011; cited from earlier work
[3] = system: severe oral mucositis in patients receiving head and neck chemoradiotherapy; experiment: PREVLAR Phase 2a trial: oral mucositis in patients receiving cisplatin + IMRT; format: in vivo, human; conditions: for Median SOM duration: all patients, baseline to last day of radiation, 0 days if never SOM; for percent of SOM visits: minimum 65 Gy cumulative radiation; for median duration of SOM: only patients who developed SOM, onset to last visit with SOM
Procedure: Referring to FIG. 1, FIG. 1 is a table 100 showing a trial in which RRx-001 was tested in various groups of patients that were being treated for cancer with a combination of chemotherapy and IMRT. The various groups were divided into “Arms” based on a treatment: • Arm 1. pretreatment with 4 mg RRx-001 2 times per week for 2 weeks followed by 40 mg/m^2 each week or 100 mg/m^2 once every 3 weeks cisplatin+IMRT. • Arm 2. pretreatment with 4 mg RRx-001 2 times per week for 2 weeks followed by cotreatment with 4 mg RRx-001 2 times once on week 2 and once on week 5+40 mg/m^2 each week or 100 mg/m^2 once every 3 weeks cisplatin+IMRT. • Arm 3. pretreatment with 4 mg RRx-001 2 times per week for 2 weeks followed by cotreatment with 4 mg RRx-001 […]+40 mg/m^2 each week or 100 mg/m^2 once every 3 weeks cisplatin+IMRT. • Arm 4. standard of care 40 mg/m^2 each week or 100 mg/m^2 once every 3 weeks cisplatin+IMRT without RRx-001.
Accordingly, patients in Arm 1 of the study were administered a pretreatment of RRx-001 over a 2-week period. No RRx-001 was administered to the patients following the pretreatment period. Following the 2-week pretreatment period, the therapeutic agent comprising cisplatin and IMRT was administered to the patients over a 6-week period.
Patients in Arm 2 of the study were likewise administered a pretreatment of RRx-001 over a 2-week period. But RRx-001 was further administered at a low dose concurrently with cisplatin and IMRT over the 6-week period following the pretreatment period.
Arm 4 of the study was the control or standard of care (SOC). No RRx-001 was administered to the patients in Arm 4 of the study and there was no pretreatment period. All patients received the same amounts of cisplatin and IMRT for Arm 1, Arm2, Arm 3, and Arm 4 of the study. Patients in the study had the option to stop or refuse treatment at any time and not all patients finished the entire treatment.
Example 2 is a Phase 2a randomized, multi-institutional (n=13, of which 12 enrolled), open-label/unblinded, controlled trial in which patients were centrally randomized into four groups (“Arms”), with approximately 10 patients per Arm (or group) before the start of CRT, stratified by oropharynx versus oral cavity site. See M. Bonomi, et al. (2023) Int. J. Radiat. Oncol. Biol. Phys. 116(3): p. 551-559.
Study participants were adults (>18 years) with pathologically diagnosed stage III to IVB locally advanced (nonmetastatic) squamous cell carcinoma of the oral cavity or oropharynx that were scheduled to receive definitive or postoperative daily fractionation IMRT of 2.0 Gy to 2.2 Gy for a total dose of 60 Gy to 72 Gy with concomitant cisplatin given as either weekly (40 mg/m^2) or tri-weekly (100 mg/m^2) infusions. Radiation fields included at least 2 oral sites at risk of OM (e.g., buccal mucosa, floor of mouth, lateral/ventral tongue, or soft palate), which were planned to receive a minimum cumulative dose of 55 Gy. […] Patients received a pretreatment evaluation including complete history, dental assessment, physical examination, complete blood count and complete metabolic profile, hematology and biochemistry profiles, optional laryngoscopy, chest computed tomography (CT) or positron emission tomography (PET)/CT, CT, and a magnetic resonance imaging (MRI) or PET/CT of the tumor site and neck nodes.
Arms 1 to 3 received twice weekly infusions of RRx-001, 4 mg/dose after a premedication dose of dexamethasone (10 mg) for the 2 weeks preceding the start of CRT. Patients in Arm 2 received two additional 4 mg doses of RRx-001 after being premedicated with dexamethasone in weeks 2 and 5 of their CRT regimen. Patients in Arm 3 received weekly RRx-001 (4 mg after dexamethasone pre-dosing) during the first 6 weeks of CRT. Treatment was completed on the last day of radiation therapy (LDRT).
The treatment phase commenced 2 weeks before the start of CRT and continued until the LDRT. […]

[4] = system: CD2F1 mice, lethal total body irradiation; experiment: Survival after lethal total body irradiation; format: in vivo
Procedure: Mice were treated with vehicle or 10 mg/kg RRx-001 intraperitoneally 24 hours prior to irradiation (9.35 Gy delivered at 0.6 Gy/min).
CD2F1 mice were treated with lethal dose 70/30 whole body irradiation dose of 9.35 Gy at 0.6 Gy/min using a ^60Co source. Twenty-four hours prior to irradiation, all mice were intraperitoneally injected with either 10 mg/kg RRx-001 or the vehicle control (5% dimethyl sulfoxide in sterile water).

[5] = Arm 1: RRx-001 pretreatment + SOC chemoradiation
[6] = 10 mg/kg 24 hours prior to lethal total body irradiation, vs vehicle control

## O=C(CBr)N1CC([N+](=O)[O-])([N+](=O)[O-])C1 [RRx-001, 2-bromo-1-(3,3-dinitroazetidin-1-yl) ethan-1-one]
[1]
  no observed adverse effect level: < 12 mg/kg
[2]
  half-life of RRx-001: under an hour
[3]; (pooled) RRx-001 treatment
  estimate (averaged across all visits) MMRM probability of SOM: 15.3%
[3]; Arm 1
  incidence of SOM (any WHO score ≥3 between baseline to the last day of radiation): 83.3%
  patients with at least one day of Grade 4 OM between the first and LDRT: 23.1%
  percent of visits with most severe forms (Grade 4) mucositis: 3.3%
  Median SOM duration: 5 days
  percent of SOM visits: 23.6%
  median duration of SOM: 8.5 days
[3]; Arm 1: 4 mg RRx-001 2 times per week for 2 weeks pretreatment, then cisplatin+IMRT
  decrease in duration of SOM through 60 Gy vs. Arm 4: 16 days
[3]; [5]
  average days longer than Arm 4 before onset of SOM from start of chemotherapy: 12 days
  decrease in SOM duration following treatment of IMRT compared to Arm 4: 18 days
[3]; Arm 2
  incidence of SOM (any WHO score ≥3 between baseline to the last day of radiation): 70%
  patients with at least one day of Grade 4 OM between the first and LDRT: 40%
  percent of visits with most severe forms (Grade 4) mucositis: 12.2%
  Median SOM duration: 13.5 days
  percent of SOM visits: 22.2%
  median duration of SOM: 17 days
[3]; Arm 2: RRx-001 pretreatment + 2 concurrent doses + SOC chemoradiation
  incidence of grade 4 OM through 60 Gy: 40%
[3]; Arm 3
  incidence of SOM (any WHO score ≥3 between baseline to the last day of radiation): 76.9%
  patients with at least one day of Grade 4 OM between the first and LDRT: 46.2%
  percent of visits with most severe forms (Grade 4) mucositis: 7.7%
  Median SOM duration: 8 days
  percent of SOM visits: 25.7%
  median duration of SOM: 10 days
[3]; Arm 3: RRx-001 pretreatment + 6 concurrent doses + SOC chemoradiation
  incidence of grade 4 OM through 60 Gy: 46%
[3]; MMRM analysis of SOM, contrast SOC alone / (Pooled RRx-001)
  Odds ratio estimate: 3.24
[3]; MMRM analysis, pooled RRx-001-treated patients
  SOM Probability (averaged across all visits): 0.153
[3]; active arms, patients with minimum 65 Gy cumulative radiation
  aggregate percent of SOM visits: 23.9%
[3]; active patients
  incidence of SOM through the short-term follow-up period: 80%
[3]; aggregate active Arms, about 72 Gy
  SOM incidence by the last dose of radiotherapy (LDRT): 77.1%
[3]; patients who received RRx-001 (treated Arms), cumulative RT dose 45 Gy
  patients exhibiting SOM: 42.9%
[3]; treated Arms, 55 Gy
  patients exhibiting SOM: 57.1%
[3]; treated Arms, 65 Gy
  patients exhibiting SOM: 71.4%
[4]; [6]
  increase in mean survival time: 7 days
  increase in survival: 33.4%
[4]; 10 mg/kg intraperitoneally 24 hours prior to 9.35 Gy at 0.6 Gy/min
  Survival over 30 days post-exposure: 67%
[4]; 1 dose of 10 mg/kg 24 hours prior to 9.35 Gy, vs vehicle control
  reduction in the 30-day death risk: ~33.4%
